The values that follow are results of earlier work, collected in patent publication US20180169018A1, “Method for improving the dissolution profile of a biologically active material” (iCeutica Pty Ltd., priority 2009, published 2018).

For this series the following is noted: absorption by the body.

As usually defined, the Tmax is the time from dosing to the highest level. Take `Cc1cnc(NC(=O)C2=C(O)c3ccccc3S(=O)(=O)N2C)s1` [Meloxicam, meloxicam]: the time of peak concentration (Tmax) is 4 to 5 h.
